Structures can show the parent of a compound that is named as a salt. One block for each compound: values may come before it.
Assays:
Format in all cases: physicochemical
[1] = Solid-state (polymorphic/crystal form) stability
Source text: It is disadvantageous for a formulation to comprise a plurality of crystal forms of an active ingredient in that they may have different bioavailabilities and/or stability. Even slight variations in production conditions may compromise the reproducibility of the crystal form and therefore the performance of the formulated product. In addition, poorly crystalline materials are typically less desirable than highly crystalline materials because they are generally more difficult to handle during formulation processes.
The Anhydrate is not stable under the conditions necessary for obtaining an SSNMR spectrum.

[2] = Water retained in the crystal lattice in equilibrium with relative humidity; conditions: in equilibrium with a relative humidity of about 5% to about 95%
Source text: Two new crystalline forms are characterized by, inter alia, x-ray powder diffractometry, or alternatively, solid state nuclear magnetic resonance spectroscopy. One preferred embodiment of the present invention provides for a crystalline (3-cyano-1H-indol-7-yl)-[4-(4-fluorophenethyl)piperazin-1-yl]methanone phosphate hydrate Form I (Form I). Form I is characterized as a non-stoichiometric hydrate in that it retains water about 1.2% by weight of compound (up to approximately ⅓ mole of water per mole of compound) within the crystalline lattice when in equilibrium with a relative humidity of about 5% to about 95%.

[3] = Solubility in the crystallization/isolation solvent systems; conditions: all of the solvent systems tested; isolation temperatures about 5° C. to about 22° C.
Protocol: Suitable solvents include, but are not limited to, methanol, ethanol, propan-1-ol, propan-2-ol, butan-2-ol, tetrahydrofuran, acetone, and the like. Suitable temperatures for salt formation typically range between about 50° C. to about 75° C. depending on the solvent. One preferred temperature range for salt formation is from the temperature at which the (3-cyano-1H-indol-7-yl)-[4-(4-fluorophenethyl)piperazin-1-yl]methanone is soluble up to the reflux temperature of the solvent. […] However, this may result in a slurry to slurry conversion of (3-cyano-1H-indol-7-yl)-[4-(4-fluorophenethyl)piperazin-1-yl]methanone to the salt.
Isolation temperatures typically range between about 5° C. and about 22° C.

Compound: N#Cc1c[nH]c2c(C(=O)N3CCN(CCc4ccc(F)cc4)CC3)cccc12 [hydrochloride salt, (3-cyano-1H-indol-7-yl)-[4-(4-fluorophenethyl)piperazin-1-yl]-methanone, reference compound]
solid form stability upon compression ([1]; upon compression during the manufacturing process): converts from a single polymorphic form into a second, poorly crystalline, metastable polymorphic form

water retained within the crystalline lattice [2]: about 1.2 % by weight of compound
water retained within the crystalline lattice (molar) [2]: ⅓
crystal form conversion on dehydration ([1]; dehydrating the solid at 0% RH and ambient temperature): may be converted to the Anhydrate
Compound: N#Cc1c[nH]c2c(C(=O)N3CCN(CCc4ccc(F)cc4)CC3)cccc12.O=P(O)(O)O [Form I, (3-cyano-1H-indol-7-yl)-[4-(4-fluorophenethyl)piperazin-1-yl]methanone phosphate hydrate Form I]

crystal form stability under anhydrous conditions ([1]; anhydrous conditions): stable
crystal form stability under SSNMR conditions ([1]; conditions necessary for obtaining an SSNMR spectrum): not stable
crystal form conversion on exposure to water ([1]; exposure to water, including atmospheric humidity): may be converted to Form I
Compound: N#Cc1c[nH]c2c(C(=O)N3CCN(CCc4ccc(F)cc4)CC3)cccc12.O=P(O)(O)O [Anhydrate, (3-cyano-1H-indol-7-yl)-[4-(4-fluorophenethyl)piperazin-1-yl]methanone phosphate anhydrate]

solubility in solvent systems tested [3]: low solubility
Compound: N#Cc1c[nH]c2c(C(=O)N3CCN(CCc4ccc(F)cc4)CC3)cccc12.O=P(O)(O)O [The salt, (3-Cyano-1H-indol-7-yl)-[4-(4-fluorophenethyl)piperazin-1-yl]methanone phosphate]
